PMC8691691 (ACS Chemical Neuroscience, 2021)
Residue numbers refer to the chain shown, from its start. Where two headings read alike, the source gives them in different places.

Key:
Test in all cases: [3H]glycine transport by GlyT2 mutant in COS7 cells
Assay type in all cases: cell-based
GlyT2 G214L mutant = biological target: T1, GlyT2 G214L mutant (Rattus norvegicus, UniProt P58295, G214L)
T1 construct: expressed in transfected cells; host or cells: COS7
T1 sequence (P58295 1-799 G214L): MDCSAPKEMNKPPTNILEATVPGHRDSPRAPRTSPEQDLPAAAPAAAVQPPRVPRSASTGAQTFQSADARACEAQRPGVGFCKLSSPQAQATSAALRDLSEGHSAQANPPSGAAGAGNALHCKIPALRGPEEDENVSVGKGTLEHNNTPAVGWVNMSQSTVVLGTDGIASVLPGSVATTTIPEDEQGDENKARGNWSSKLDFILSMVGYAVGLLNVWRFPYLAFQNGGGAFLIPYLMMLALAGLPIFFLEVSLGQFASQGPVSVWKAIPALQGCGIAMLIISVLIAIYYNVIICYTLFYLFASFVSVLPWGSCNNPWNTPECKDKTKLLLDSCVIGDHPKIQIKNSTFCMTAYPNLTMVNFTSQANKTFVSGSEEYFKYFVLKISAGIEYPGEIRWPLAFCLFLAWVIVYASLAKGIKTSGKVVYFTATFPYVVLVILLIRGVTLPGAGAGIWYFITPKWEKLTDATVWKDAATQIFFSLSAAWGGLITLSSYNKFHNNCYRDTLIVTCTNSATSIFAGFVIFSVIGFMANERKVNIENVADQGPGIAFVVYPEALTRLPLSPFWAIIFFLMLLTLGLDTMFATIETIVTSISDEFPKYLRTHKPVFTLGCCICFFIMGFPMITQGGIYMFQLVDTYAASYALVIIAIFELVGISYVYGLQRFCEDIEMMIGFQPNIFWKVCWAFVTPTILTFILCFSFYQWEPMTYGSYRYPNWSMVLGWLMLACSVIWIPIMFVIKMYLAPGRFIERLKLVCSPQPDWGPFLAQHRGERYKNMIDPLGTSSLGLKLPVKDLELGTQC
From the text: (§1) To validate the predicted interactions between the inhibitors and GlyT2, we used systematic site-directed mutagenesis to construct substitution mutants of the potential residues involved in ligand binding. […] The GlyT2 residues predicted to interact with the inhibitors through its side chain were replaced by amino acids expected to force the loss of the interaction. In the cases where the interaction occurred through the backbone, the inserted amino acid sought to alter the disposition of the substituted residue to lose the coordination.
(§2) Substitution mutants were generated with the QuikChange II Site-Directed Mutagenesis kit (Agilent Technologies, Santa Clara, CA, USA), using rGlyT2 or rGlyT1 subcloned in pCDNA3.[47] The complete coding region of all of the constructs was sequenced to verify that only the desired mutation had been introduced. […] COS7 cells were grown and transfected using Turbofect Transfection Reagent (Thermo Fisher Scientific, Waltham, MA, USA), following the manufacturer’s protocol (2 μL reagent/μg of DNA). Cells were incubated for 48 h at 37 °C until used.
(§3) At the end of the desired time (usually 10 min), reactions were washed and terminated by aspiration. […] A nonlinear curve fitting method was used to obtain IC50 values using Graphpad Prism software, version 6.0, Graphpad, San Diego, CA, USA.

GlyT2 S640C mutant = biological target: T2, GlyT2 S640C mutant (Rattus norvegicus, UniProt P58295, S640C); settings: read-out: IC50 (Table S1)
T2 construct: expressed in transfected cells; host or cells: COS7
T2 sequence (P58295 1-799 S640C): T1 sequence (P58295 1-799 G214L) with L214G, S640C
From the text: as §1, §2, §3

GlyT2 T580C mutant = biological target: T3, GlyT2 T580C mutant (Rattus norvegicus, UniProt P58295, T580C)
T3 construct: expressed in transfected cells; host or cells: COS7
T3 sequence (P58295 1-799 T580C): T1 sequence (P58295 1-799 G214L) with L214G, T580C
From the text: as §1, §2, §3

Structure (SMILES)	IC50 (GlyT2 G214L mutant; read-out: IC50 (Table S1)) [nM]	IC50 (GlyT2 S640C mutant) [nM]	IC50 (GlyT2 T580C mutant; read-out: IC50 (Table S1)) [nM]	IC50 (GlyT2 G214L mutant) [nM]	IC50 (GlyT2 T580C mutant) [nM]
N[C@@H](COC(c1cccc(F)c1)c1ccccc1OCc1ccccc1)C(=O)O (stereo partly drawn) [ALX1393]	38 ± 3	30 ± 7	84 ± 9	–	–
COc1cc(C(=O)NCC2(N(C)C)CCCC2)cc(OC)c1OCc1ccccc1 [ORG25543, N-[[1-(dimethylamino)cyclopentyl]methyl]-3,5-dimethoxy-4-(phenylmethoxy)benzamide]	–	130 ± 6	–	17 ± 10	96 ± 10
